In patent publication US20220348543A1, “SALTS OF OMECAMTIV MECARBIL AND SOLID FORMS THEREOF” (SYNTHON B.V., priority 2019, published 2022):
Counter-ions that a name gives are not always drawn. Like-named read-outs stand apart in the source and are kept apart here.

Columns and labels:
[1] = Solubility of Omecamtiv mecarbil salts in water solution (aqueous buffer) at different pH; assay type: physicochemical; conditions: USP / Ph. Eur. descriptive terms, read-out: Category of solubility (Descriptive Term)
Experimental: The solubility of prepared salts was tested in water solution at different pH (1.2, 4.5 and 6.8) and compared to Omecamtiv mecarbil dihydrochloride monohydrate salt prepared according to a procedure disclosed in WO2006009726 application.
It can be concluded that solubility of all prepared salt is better that the solubility of dihydrochloride monohydrate salt.

[2] = Stability at 25° C. of the solid isolated from salt crystallisation; assay type: physicochemical; conditions: crystallised from 2-butanone
Experimental: The preparation of Omecamtiv mecarbil methane sulfonic acid salt was tested also in following solvent: methanol, ethanol, isopropanol, 1-butanol, acetone and tetrahydrofurane. Solid obtainable from these solvents was not stable and it melted at a temperature 25° C. […] The solid Form M can be therefore used for purification of Omecamtiv mecarbil. The salt can be transformed into Omecamtiv mecarbil by contacting with a base (for example sodium hydrogen carbonate or potassium hydrogen carbonate or sodium carbonate or potassium carbonate or sodium hydroxide or potassium hydroxide) in a suitable solvent (for example an alcohol or acetone).
250 mg of Omecamtiv mecarbil was dissolved in a solvent (in Table below) at a temperature (in Table below). 40 μl methane sulfonic acid (1 eq. w.r.t. Omecamtiv mecarbil) was added. The mixture was cooled to 25° C. and stirred for 16 hours. If no solid appeared, mixture was then stirred at −15° C. Solid mass was filtered off and dried. The ratio between Omecamtiv mecarbil and the salt was determined by NMR as 1:2 (i.e. dimethane sulfonate salt).

Structure (SMILES)	solubility ([1]; aqueous buffer pH 4.5) [mg/mL]	solubility ([1]; aqueous buffer pH 6.8) [mg/mL]	solubility ([1]; simulated gastric fluid, aqueous buffer pH 1.2) [mg/mL]	stability of the crystalline solid [2]
COC(=O)N1CCN(Cc2cccc(NC(=O)Nc3ccc(C)nc3)c2F)CC1 [Omecamtiv mecarbil p-toluene sulfonic acid salt]	≥ 1000	≥ 1000	≥ 1000	–
COC(=O)N1CCN(Cc2cccc(NC(=O)Nc3ccc(C)nc3)c2F)CC1 [Salt with methane sulfonic acid, Form M, Omecamtiv mecarbil methane sulfonic acid salt]	–	–	–	form M, stable at 25° C.,
